In US9617530B2, “Acetyl-CoA carboxylase herbicide resistant sorghum” (Kansas State University Research Foundation, Inc., priority 2007, dated 2017):

Legend:
[1] = tested on: Tx2783, an herbicide susceptible elite sorghum genotype; assay: Greenhouse herbicide selection, spray on susceptible elite check; format: in vivo, Sorghum bicolor (L.) Moench
Excerpt: Seeds of 83 wild sorghum populations from Bolivia were planted in a greenhouse for comparison with Tx2783, an herbicide susceptible elite sorghum genotype. Wild sorghum genotypes were planted in flats containing MetroMix 360 potting soil (Sun Gro) and greenhouse grown. Tx2783 was planted with the wild accessions in each flat for comparison. In one selection using clethodim, plants were sprayed with 0.09 lb ai clethodim acre^−1 at 18 days after planting. […] In one selection using fluoazifop-P, flats with Tx2783 and wild accessions were sprayed with a rate of 0.12 lb ai fluazifop-P acre^−1 at 18 days after planting and with 0.36 lb ai fluazifop-P acre^−1 at 32 days after planting. […] In a third experiment, plants were sprayed with a rate of 0.05 lb ai quizalofop acre^−1 at 18 days after planting and with 0.11 lb ai quizalofop acre^−1 at 32 days after planting.

[2] = tested on: Pioneer 84G62 (herbicide susceptible control); assay: Mode of inheritance greenhouse spray test, susceptible control; format: in vivo, sorghum; settings: 0.045 lb ai fluazifop-P acre^-1 at 14 days after planting, n=3
Protocol: (§1) The mode of inheritance of herbicide tolerance was determined by planting seeds of Bol-71, F1 generation of cross ATx623×Bol-71, and Pioneer 84G62 (herbicide susceptible control) in flats containing MetroMix 360 potting soil in a greenhouse using a randomized complete block design (n=3). The plants were sprayed with 0.045 lb ai fluazifop-P acre^−1 at 14 days after planting. Pioneer 84G62 died between 12-16 days after spraying.

[3] = tested on: F1 generation of cross ATx623×Bol-71; assay: Mode of inheritance greenhouse spray test, F1 hybrid; format: in vivo, sorghum; settings: 0.045 lb ai fluazifop-P acre^-1 at 14 days after planting, n=3
Protocol: as §1

[4] = tested on: Bol-71; assay: Mode of inheritance greenhouse spray test, wild parent; format: in vivo, sorghum; settings: 0.045 lb ai fluazifop-P acre^-1 at 14 days after planting, n=3
Protocol: as §1

SMILES: CC(Oc1ccc(Oc2cnc3cc(Cl)ccc3n2)cc1)C(=O)O (centres unmarked) [quizalofop]
- plant outcome after spraying ([1]; 0.05 lb ai quizalofop acre^-1 at 18 days and 0.11 lb ai acre^-1 at 32 days after planting): died

SMILES: C[C@@H](Oc1ccc(Oc2ccc(C(F)(F)F)cn2)cc1)C(=O)O [fluazifop-P]
- plant outcome after spraying ([1]; 0.12 lb ai fluazifop-P acre^-1 at 18 days and 0.36 lb ai acre^-1 at 32 days after planting): died
- time of plant death after spraying [2]: 12-16 days after spraying
- herbicide damage [3]: no herbicide damage
- herbicide damage [4]: no herbicide damage
